Patent US20080188483A1, “Compounds and Compositions as Protein Kinase Inhibitors” (IRM LLC, priority 2006, published 2008)

Tests used:
[1] = molecular target: T1, wild type Bcr-abl (Ba/F3 cells) (Homo sapiens, UniProt P00519); experiment: Proliferation of Ba/F3 cells expressing wild type Bcr-abl; assay type: cell-based
T1 construct: expressed in transfected cells; host or cells: Ba/F3 (murine pro-B cells); the other entry of the earlier key: BCR (P11274, Breakpoint cluster region protein)
Description: (§1) 2D-p210 cells are plated into 96 well TC plates at a density of 15,000 cells per well. 50 μL of two fold serial dilutions of the test compound (Cmax is 40 μM) are added to each well (STI571 is included as a positive control). After incubating the cells for 48 hours at 37° C., 5% CO2, 15 μL of MTT (Promega) is added to each well and the cells are incubated for an additional 5 hours. The optical density at 570 nm is quantified spectrophotometrically and IC50 values, the concentration of compound required for 50% inhibition, determined from a dose response curve.
(§2) Compounds of the invention are tested for their antiproliferative effect on Ba/F3 cells expressing either wild type or the mutant forms of BCR-Abl (G250E, E255V, T315I, F317L, M351T) that confers resistance or diminished sensitivity to STI571. The antiproliferative effect of these compounds on the mutant-BCR-Abl expressing cells and on the non transformed cells were tested at 10, 3.3, 1.1 and 0.37 μM as described above (in media lacking IL3). The IC50 values of the compounds lacking toxicity on the untransformed cells were determined from the dose response curves obtained as describe above.

[2] = molecular target: T2, E255V Bcr-abl (Ba/F3 cells) (Homo sapiens, UniProt P00519, E255V); experiment: Proliferation of Ba/F3 cells expressing mutant Bcr-abl E255V; assay type: cell-based
T2 construct: expressed in transfected cells; host or cells: Ba/F3; the other entry of the earlier key: BCR (P11274, Breakpoint cluster region protein)
Description: as §1, §2

[3] = molecular target: T3, F317L Bcr-abl (Ba/F3 cells) (Homo sapiens, UniProt P00519, F317L); experiment: Proliferation of Ba/F3 cells expressing mutant Bcr-abl F317L; assay type: cell-based
T3 construct: expressed in transfected cells; host or cells: Ba/F3; the other entry of the earlier key: BCR (P11274, Breakpoint cluster region protein)
Description: as §1, §2

[4] = molecular target: T4, M351T Bcr-abl (Ba/F3 cells) (Homo sapiens, UniProt P00519, M351T); experiment: Proliferation of Ba/F3 cells expressing mutant Bcr-abl M351T; assay type: cell-based
T4 construct: expressed in transfected cells; host or cells: Ba/F3; the other entry of the earlier key: BCR (P11274, Breakpoint cluster region protein)
Description: as §1, §2

[5] = system: b-Raf (A375 cells, V599E mutation); experiment: b-Raf cellular assay (phosphorylation of MEK in A375 cells); assay type: cell-based; conditions: Homo sapiens, A-375, phospho-MEK
Description: Compounds of the invention are tested in A375 cells for their ability to inhibit phosphorylation of MEK. A375 cell line (ATCC) is derived from a human melanoma patient and it has a V599E mutation on the B-Raf gene. The levels of phosphorylated MEK are elevated due to the mutation of B-Raf. Sub-confluent to confluent A375 cells are incubated with compounds for 2 hours at 37° C. in serum free medium. Cells are then washed once with cold PBS and lysed with the lysis buffer containing 1% Triton X100. After centrifugation, the supernatants are subjected to SDS-PAGE, and then transferred to nitrocellulose membranes. The membranes are then subjected to western blotting with anti-phospho-MEK antibody (ser217/221) (Cell Signaling). The amount of phosphorylated MEK is monitored by the density of phospho-MEK bands on the nitrocellulose membranes.

BMX = molecular target: T5, BMX (Homo sapiens, UniProt P51813); experiment: Upstate KinaseProfiler radio-enzymatic filter binding assay; assay type: biochemical; conditions: at a concentration of 10 μM; read-out: percentage inhibition of BMX
T5 construct: purchased Upstate
Description: (§3) Compounds of the invention are assessed for their ability to inhibit individual members of a panel of kinases (a partial, non-limiting list of kinases includes: Abl, BMX, BTK, CHK2, c-RAF, CSK, c-SRC, Fes, FGFR3, Flt3, IKKα, IKKβ, JNK2α2, Lck, Met, MKK4, MKK6, MST2, NEK2, p70S6K, PDGFRβ, PKA, PKBα, PKD2, Rsk1, SAPK2α, SAPK2β, SAPK3, SGK, Tie2 and/or TrkB. The compounds are tested in duplicates at a final concentration of 10 μM following this generic protocol. Note that the kinase buffer composition and the substrates vary for the different kinases included in the “Upstate KinaseProfiler™” panel. Kinase buffer (2.5 μL, 10×—containing MnCl2 when required), active kinase (0.001-0.01 Units; 2.5 μL), specific or Poly(Glu4-Tyr) peptide (5-500 μM or 0.01 mg/ml) in kinase buffer and kinase buffer (50 μM; 5 μL) are mixed in an eppendorf on ice. A Mg/ATP mix (10 μL; 67.5 (or 33.75) mM MgCl2, 450 (or 225) μM ATP and 1 μCi/μl [γ-^32P]-ATP (3000 Ci/mmol)) is added and the reaction is incubated at about 30° C. for about 10 minutes. The reaction mixture is spotted (20 μL) onto a 2 cm×2 cm P81 (phosphocellulose, for positively charged peptide substrates) or Whatman No. 1 (for Poly (Glu4-Tyr) peptide substrate) paper square. The assay squares are washed 4 times, for 5 minutes each, with 0.75% phosphoric acid and washed once with acetone for 5 minutes. The assay squares are transferred to a scintillation vial, 5 ml scintillation cocktail are added and ^32P incorporation (cpm) to the peptide substrate is quantified with a Beckman scintillation counter. Percentage inhibition is calculated for each reaction.

Lck = molecular target: T6, Lck (Homo sapiens, UniProt P06239); experiment: as above; assay type: biochemical; conditions: at a concentration of 10 μM; read-out: percentage inhibition of Lck
T6 construct: purchased Upstate
Description: as §3

MKK6 = molecular target: T7, MKK6 (Homo sapiens, UniProt P52564); experiment: as above; assay type: biochemical; conditions: at a concentration of 10 μM; read-out: percentage inhibition of MKK6
T7 construct: purchased Upstate
Description: as §3

PDGFRβ = molecular target: T8, PDGFRβ (Homo sapiens, UniProt P09619); experiment: as above; assay type: biochemical; conditions: at a concentration of 10 μM; read-out: percentage inhibition of PDGFRβ
T8 construct: purchased Upstate
Description: as §3

TrkB = molecular target: T9, TrkB (Homo sapiens, UniProt Q16620); experiment: as above; assay type: biochemical; conditions: at a concentration of 10 μM; read-out: percentage inhibition of TrkB
T9 construct: purchased Upstate
Description: as §3

c-RAF = molecular target: T10, c-RAF (Homo sapiens, UniProt P04049); experiment: as above; assay type: biochemical; conditions: at a concentration of 10 μM; read-out: percentage inhibition of c-RAF
T10 construct: purchased Upstate
Description: as §3

c-SRC = molecular target: T11, c-SRC (Homo sapiens, UniProt P12931); experiment: as above; assay type: biochemical; conditions: at a concentration of 10 μM; read-out: percentage inhibition of c-SRC
T11 construct: purchased Upstate
Description: as §3

p70S6K = molecular target: T12, p70S6K (Homo sapiens, UniProt P23443); experiment: as above; assay type: biochemical; conditions: at a concentration of 10 μM; read-out: percentage inhibition of p70S6K
T12 construct: purchased Upstate
Description: as §3

T6 sequence (P06239 whole entry): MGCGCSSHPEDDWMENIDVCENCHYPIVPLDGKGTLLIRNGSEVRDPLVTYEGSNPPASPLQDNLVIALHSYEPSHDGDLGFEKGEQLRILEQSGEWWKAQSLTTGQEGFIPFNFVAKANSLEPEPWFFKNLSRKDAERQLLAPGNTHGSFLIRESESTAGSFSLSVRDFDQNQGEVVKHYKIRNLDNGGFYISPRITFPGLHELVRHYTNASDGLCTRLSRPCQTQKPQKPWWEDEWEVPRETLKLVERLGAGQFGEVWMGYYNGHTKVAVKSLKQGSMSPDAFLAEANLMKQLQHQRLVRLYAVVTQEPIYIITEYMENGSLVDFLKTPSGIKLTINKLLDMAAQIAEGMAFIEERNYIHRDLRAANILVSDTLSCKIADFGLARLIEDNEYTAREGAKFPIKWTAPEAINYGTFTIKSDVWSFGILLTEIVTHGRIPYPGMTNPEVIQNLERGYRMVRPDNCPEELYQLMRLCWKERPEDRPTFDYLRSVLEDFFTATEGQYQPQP
T7 sequence (P52564 whole entry): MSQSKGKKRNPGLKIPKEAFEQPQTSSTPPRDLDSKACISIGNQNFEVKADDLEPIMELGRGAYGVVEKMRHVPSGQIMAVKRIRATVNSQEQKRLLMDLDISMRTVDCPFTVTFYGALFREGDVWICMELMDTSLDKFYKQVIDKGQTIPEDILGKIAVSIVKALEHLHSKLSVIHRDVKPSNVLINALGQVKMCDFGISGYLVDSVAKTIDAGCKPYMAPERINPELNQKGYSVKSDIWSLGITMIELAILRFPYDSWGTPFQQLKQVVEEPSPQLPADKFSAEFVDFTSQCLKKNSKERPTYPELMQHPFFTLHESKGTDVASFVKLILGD
T9 sequence (Q16620 32-822): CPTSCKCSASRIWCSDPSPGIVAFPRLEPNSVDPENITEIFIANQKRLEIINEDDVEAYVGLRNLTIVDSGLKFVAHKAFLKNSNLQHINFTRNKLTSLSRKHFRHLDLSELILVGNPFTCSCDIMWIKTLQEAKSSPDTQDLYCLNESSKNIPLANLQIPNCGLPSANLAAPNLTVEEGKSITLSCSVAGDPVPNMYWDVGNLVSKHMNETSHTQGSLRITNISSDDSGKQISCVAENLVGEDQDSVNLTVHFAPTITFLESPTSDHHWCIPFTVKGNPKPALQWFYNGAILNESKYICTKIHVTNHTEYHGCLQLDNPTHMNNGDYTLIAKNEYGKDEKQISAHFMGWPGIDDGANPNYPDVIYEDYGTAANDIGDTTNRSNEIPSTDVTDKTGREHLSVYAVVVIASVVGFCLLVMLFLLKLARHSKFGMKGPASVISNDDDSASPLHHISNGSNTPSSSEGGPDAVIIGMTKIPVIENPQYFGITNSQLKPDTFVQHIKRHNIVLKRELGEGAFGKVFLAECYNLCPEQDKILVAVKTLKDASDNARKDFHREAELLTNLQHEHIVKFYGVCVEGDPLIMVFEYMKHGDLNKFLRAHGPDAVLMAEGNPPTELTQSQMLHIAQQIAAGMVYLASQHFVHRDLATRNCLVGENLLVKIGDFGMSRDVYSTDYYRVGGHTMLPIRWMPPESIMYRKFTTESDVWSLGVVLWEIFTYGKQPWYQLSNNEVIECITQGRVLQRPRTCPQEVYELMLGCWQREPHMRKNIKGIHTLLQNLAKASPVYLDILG
T8 sequence (P09619 33-1106): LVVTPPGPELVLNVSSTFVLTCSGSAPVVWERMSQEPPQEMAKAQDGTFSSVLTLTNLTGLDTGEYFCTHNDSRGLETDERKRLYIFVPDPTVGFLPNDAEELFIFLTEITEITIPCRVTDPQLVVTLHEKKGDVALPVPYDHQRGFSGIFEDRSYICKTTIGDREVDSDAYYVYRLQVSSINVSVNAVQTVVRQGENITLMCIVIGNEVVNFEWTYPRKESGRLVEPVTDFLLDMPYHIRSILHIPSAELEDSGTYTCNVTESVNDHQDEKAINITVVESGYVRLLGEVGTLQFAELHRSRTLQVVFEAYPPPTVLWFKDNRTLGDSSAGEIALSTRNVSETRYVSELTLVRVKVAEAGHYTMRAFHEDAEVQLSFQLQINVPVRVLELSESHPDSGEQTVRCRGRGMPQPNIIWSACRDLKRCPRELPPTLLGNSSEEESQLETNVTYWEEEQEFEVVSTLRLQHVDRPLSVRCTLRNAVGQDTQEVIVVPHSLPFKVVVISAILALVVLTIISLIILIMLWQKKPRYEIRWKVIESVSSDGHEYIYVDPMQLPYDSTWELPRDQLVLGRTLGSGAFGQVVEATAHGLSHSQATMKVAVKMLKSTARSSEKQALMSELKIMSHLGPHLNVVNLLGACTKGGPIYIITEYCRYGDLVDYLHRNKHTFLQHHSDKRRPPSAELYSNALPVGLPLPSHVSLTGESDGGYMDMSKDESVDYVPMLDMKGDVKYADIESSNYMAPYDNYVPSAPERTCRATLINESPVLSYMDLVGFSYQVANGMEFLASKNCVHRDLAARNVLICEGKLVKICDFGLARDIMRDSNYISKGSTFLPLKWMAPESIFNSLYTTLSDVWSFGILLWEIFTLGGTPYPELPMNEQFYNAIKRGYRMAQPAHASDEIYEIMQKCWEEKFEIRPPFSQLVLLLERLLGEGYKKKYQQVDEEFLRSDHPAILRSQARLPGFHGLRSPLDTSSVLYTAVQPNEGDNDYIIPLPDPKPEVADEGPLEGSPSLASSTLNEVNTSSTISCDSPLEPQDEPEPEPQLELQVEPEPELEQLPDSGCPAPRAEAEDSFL
T12 sequence (P23443 whole entry): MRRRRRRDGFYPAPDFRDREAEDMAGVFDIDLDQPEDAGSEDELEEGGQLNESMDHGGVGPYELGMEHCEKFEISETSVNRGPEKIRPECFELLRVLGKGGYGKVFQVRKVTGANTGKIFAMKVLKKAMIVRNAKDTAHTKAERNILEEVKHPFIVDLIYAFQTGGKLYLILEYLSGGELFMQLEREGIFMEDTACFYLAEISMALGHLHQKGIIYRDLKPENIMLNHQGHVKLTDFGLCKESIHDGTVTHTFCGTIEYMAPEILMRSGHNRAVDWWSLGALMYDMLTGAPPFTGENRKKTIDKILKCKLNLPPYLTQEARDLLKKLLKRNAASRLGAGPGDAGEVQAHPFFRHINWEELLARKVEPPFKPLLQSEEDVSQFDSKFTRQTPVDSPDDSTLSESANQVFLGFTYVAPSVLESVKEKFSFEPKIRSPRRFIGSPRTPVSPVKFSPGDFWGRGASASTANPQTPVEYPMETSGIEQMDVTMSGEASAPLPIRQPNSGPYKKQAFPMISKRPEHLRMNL
T11 sequence (P12931 whole entry): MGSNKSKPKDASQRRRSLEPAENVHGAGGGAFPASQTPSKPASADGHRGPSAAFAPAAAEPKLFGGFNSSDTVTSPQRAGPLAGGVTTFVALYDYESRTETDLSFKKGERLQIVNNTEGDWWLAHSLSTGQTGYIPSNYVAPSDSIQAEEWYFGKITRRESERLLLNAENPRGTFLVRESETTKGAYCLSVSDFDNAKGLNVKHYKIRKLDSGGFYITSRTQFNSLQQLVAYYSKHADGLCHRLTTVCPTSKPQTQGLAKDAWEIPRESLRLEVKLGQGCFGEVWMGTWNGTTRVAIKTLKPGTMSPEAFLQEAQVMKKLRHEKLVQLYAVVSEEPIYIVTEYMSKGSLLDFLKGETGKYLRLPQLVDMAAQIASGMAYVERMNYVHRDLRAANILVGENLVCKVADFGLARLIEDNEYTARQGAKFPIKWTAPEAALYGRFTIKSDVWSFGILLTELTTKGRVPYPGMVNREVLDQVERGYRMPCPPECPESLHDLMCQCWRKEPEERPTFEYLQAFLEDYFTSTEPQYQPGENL
T5 sequence (P51813 whole entry): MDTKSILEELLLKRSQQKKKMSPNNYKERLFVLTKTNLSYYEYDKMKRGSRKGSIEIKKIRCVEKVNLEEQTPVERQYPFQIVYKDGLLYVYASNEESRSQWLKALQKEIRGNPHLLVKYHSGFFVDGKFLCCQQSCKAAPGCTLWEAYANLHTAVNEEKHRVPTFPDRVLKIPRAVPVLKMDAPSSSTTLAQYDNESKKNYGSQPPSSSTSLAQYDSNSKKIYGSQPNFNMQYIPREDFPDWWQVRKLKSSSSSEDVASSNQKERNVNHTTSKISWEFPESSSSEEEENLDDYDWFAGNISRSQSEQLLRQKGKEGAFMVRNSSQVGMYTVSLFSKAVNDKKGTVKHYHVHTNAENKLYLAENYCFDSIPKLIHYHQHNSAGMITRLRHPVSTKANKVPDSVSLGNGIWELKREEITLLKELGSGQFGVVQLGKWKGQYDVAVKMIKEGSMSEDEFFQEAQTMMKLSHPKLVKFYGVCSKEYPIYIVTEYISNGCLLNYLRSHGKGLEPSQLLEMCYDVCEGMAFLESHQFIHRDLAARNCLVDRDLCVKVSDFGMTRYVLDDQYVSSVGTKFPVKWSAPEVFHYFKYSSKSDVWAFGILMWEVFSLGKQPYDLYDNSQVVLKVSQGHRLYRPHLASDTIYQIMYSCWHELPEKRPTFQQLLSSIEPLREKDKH

Cc1cn(-c2cc(C(=O)Nc3ccc(C)c(Nc4nccn4-c4ncnc5[nH]ccc45)c3)cc(C(F)(F)F)c2)cn1 [Example 2, 3-(4-methyl-imidazol-1-yl)-N-{4-methyl-3-[1-(7H-pyrrolo[2,3-d]pyrimidin-4-yl)-1H-imidazol-2-ylamino]-phenyl}-5-trifluoromethyl-benzamide]
IC50 [1]: < 0.0005 µM
IC50 [2]: 0.043 µM
IC50 [3]: < 0.0005 µM
IC50 [4]: < 0.0005 µM
IC50 [5]: 0.032 µM
inhibition at 10 µM (BMX): 99%
inhibition at 10 µM (Lck): 99%
inhibition at 10 µM (MKK6): 99%
inhibition at 10 µM (PDGFRβ): 83%
inhibition at 10 µM (TrkB): 100%
inhibition at 10 µM (c-RAF): 98%
inhibition at 10 µM (c-SRC): 100%
inhibition at 10 µM (p70S6K): 86%
